Results on five compounds are retold here after patent publication US10226426B2, “Suspension containing nano-cocrystal and manufacturing method” (TAKEDA PHARMACEUTICAL COMPANY LIMITED, priority 2015, dated 2019).

Series [1] in a line: Powder X-ray diffractometry, crystallinity by the Hermans method. It counts as physicochemical. How it is done: To be specific, powder samples (about 2 mg) were placed on a silicon sample plate, and scanned between 2 and 35 degrees (2θ) at a scan speed of 6 degrees/min. Powder samples such as nanoized FSD and the like were prepared by centrifuging suspensions thereof by cooling centrifugal machine Himac CR21G (manufactured by Hitachi Koki Co., Ltd.) at 19,000 rpm for 10 min and drying same. In addition, from the obtained X-ray diffraction patterns by the Hermans method, crystallinity before and after wet grinding was calculated.

The conditions of series [2]: value at 25° C. and 1 atm; cited from earlier work.

In brackets after ≈: the same amount, converted by molar mass.

Turning to `NS(=O)(=O)c1cc(C(=O)O)c(NCc2ccco2)cc1Cl` [Furosemide, furosemide], the “crystallinity before wet grinding” value in series [1] worked out at 85%. Moreover, the “diffraction pattern before and after wet grinding (dissociation of cocrystal)” value in series [1] (wet grinding in 0.5% (w/v) HPMC and 0.02% (w/v) SDS) is “did not show a marked difference in the diffraction pattern before and after the wet grinding”.

Regarding `O=C1NS(=O)(=O)c2ccccc21` [Saccharin, saccharin], the water solubility in series [2] is 3.4 mg/mL (≈ 18600 µM).

Turning to `NC(=O)N1c2ccccc2C=Cc2ccccc21` [anhydrous carbamazepine, carbamazepine], in series [1], the “crystallinity before wet grinding” value was found to be 88%. The “formation of hydrate by wet grinding” value in series [1] (diffraction pattern after wet grinding) was “formation of CBZ dihydrate could be confirmed”. In addition, the water solubility in series [2] is 0.22 mg/mL (≈ 931 µM).

For the compound `COc1ccc2c(c1)c(CC(=O)O)c(C)n2C(=O)c1ccc(Cl)cc1` [indomethacin], the “crystallinity before wet grinding” value in series [1] came to 81%. For the same compound, in series [2], the water solubility is recorded as 0.0095 mg/mL (≈ 26.6 µM).

With `NC(N)=O` [urea], the water solubility in series [2] is reported as 1,000 mg/mL.
